This test has as its system OVCAR-3 cells. Kind of test: In vitro inhibition of Topoisomerase-I by delivery of Exatecan via the ADC (DNA-damage markers). Conditions: 5 μg/mL, 72 h. Format: cell-based. The protocol:
OVCAR-3 cells were treated with 5 μg/mL TUB-040 or 5 nM free Exatecan for 72 h. Cells were stained with Live/Dead stain and for the DNA-damage markers active caspase-3, cleaved PARP and phosphorylated H2A.X (Ser-139) and analyzed by flow cytometry. Graphs show means of n=2±SEM (FIG. 9).

The text below walks through data of patent US20240182596A1, “ANTI-NAPI2B ANTIBODIES AND ANTIBODY-DRUG-CONJUGATES BASED THEREON, THERAPEUTIC METHODS AND USES THEREOF” (Tubulis GmbH, priority 2022, published 2024).

TUB-040: the “Induction of DNA-damage markers (active caspase-3, cleaved PARP, phosphorylated H2A.X)” value is “induces DNA-damage markers”.
